Literature values, collected in patent US9808460B2, “Controlled release auris sensory cell modulator compositions and methods for the treatment of otic disorders” (Otonomy, Inc., priority 2008, dated 2017).

Test system: ototoxic effects of cisplatin
Settings: in certain instances

In the case of `NCCCNCCSP(=O)(O)O` [Amifostine], the “doses needed to protect against or ameliorate the ototoxic effects of cisplatin” value is given as at least 40 mg/kg.
